According to patent publication US7557213B2, “Substituted quinolones and methods of use” (ChemoCentryx, Inc., priority 2005, dated 2009):

What follows are molecules tested against T1, CCXCKR2 receptor (Homo sapiens, UniProt P25106) (assay: Displacement of 125I-labeled SDF-1 from the CCXCKR2 receptor on MCF-7 and/or CCXCKR2-transfected MDA-MB-435S cells (radioligand binding, filtration)). Conditions: not given.
T1 construct: expressed in transfected cells; host or cells: MDA-MB-435S transfected with pcDNA3.1(+)-hRDC1 and/or MCF-7 (endogenous receptor)
T1 sequence (P25106 whole entry): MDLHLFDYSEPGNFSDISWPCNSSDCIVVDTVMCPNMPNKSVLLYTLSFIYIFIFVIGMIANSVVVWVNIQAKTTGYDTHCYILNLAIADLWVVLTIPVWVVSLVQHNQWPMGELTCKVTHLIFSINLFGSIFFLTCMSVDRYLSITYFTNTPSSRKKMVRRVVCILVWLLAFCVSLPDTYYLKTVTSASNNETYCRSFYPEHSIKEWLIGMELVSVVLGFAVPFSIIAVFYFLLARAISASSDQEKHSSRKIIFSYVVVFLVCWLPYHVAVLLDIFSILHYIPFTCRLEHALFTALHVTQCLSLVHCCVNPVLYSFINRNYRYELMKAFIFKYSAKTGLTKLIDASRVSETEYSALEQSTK

| Structure (SMILES) | IC50 [nM] |
| --- | --- |
| Cc1ccc(C(=O)c2cn(Cc3cccc(F)n3)c3ccccc3c2=O)cc1C [Example 70] | < 100 |

Same assay, conditions: 125I SDF-1, 3 hr at 4° C., MCF-7 and/or MDA-MB-435S cells; read-out: Activity (concentration displacing at least 50% of the SDF-1 from the CCXCKR2 receptor)

| IC50 [nM] | Structure (SMILES) |
| --- | --- |
| < 100 | Cc1ccc(C(=O)c2cn(Cc3cccc(CCl)n3)c3ccccc3c2=O)cc1C [Example 108] |
| < 100 | Cc1ccc(C(=O)c2cn(Cc3cccc(C(F)(F)F)n3)c3ccccc3c2=O)nc1C [Example 79] |
| < 100 | Cc1cc(C(=O)c2cn(Cc3cccc(Br)n3)c3ccccc3c2=O)ccc1Cl [Example 182] |
| < 100 | COc1ccc(C(=O)c2cn(Cc3cccc(Br)n3)c3ncccc3c2=O)cc1C [Example 160] |
| < 100 | COc1ccc(C(=O)c2cn(Cc3cccc(Br)n3)c3ncccc3c2=O)cc1OC [Example 193] |
| < 100 | COc1ccc(C(=O)c2cn(Cc3cccc(Cl)c3)c3ccccc3c2=O)cn1 [Example 246] |
| < 100 | CN(C)c1ccc(C(=O)c2cn(Cc3cccc(Cl)c3)c3ccccc3c2=O)cn1 [Example 245] |
| 500 to 20000 | Cc1ccc(C(=O)c2cn(Cc3cccc(N(C)C)n3)c3ccccc3c2=O)cc1C [Example 92] |
| < 100 | Cc1cc(C(=O)c2cn(Cc3cccc(Br)n3)c3ccccc3c2=O)ccc1F [Example 203] |
| < 100 | O=C(c1ccc2c(c1)OCCO2)c1cn(Cc2cccc(Cl)c2)c2ccccc2c1=O [Example 233] |
| < 100 | O=C(c1ccc2c(c1)OCCO2)c1cn(Cc2cccc(Br)n2)c2ncccc2c1=O [Example 175] |
| < 100 | COc1ccc(C(=O)c2cn(Cc3cccc(Br)n3)c3ccc(C)nc3c2=O)cc1C [Example 215] |
| < 100 | Cc1cccc(Cn2cc(C(=O)c3ccccc3N3CCOCC3)c(=O)c3ccccc32)n1 [Example 205] |
| < 100 | Cc1ccc(C(=O)c2cn(Cc3cccc(-c4cncnc4)n3)c3ccccc3c2=O)cc1C [Example 44] |
| < 100 | Cc1cc(C(=O)c2cn(Cc3cccc(Br)n3)c3ccccc3c2=O)cnc1C [Example 54] |
| < 100 | O=C(c1ccc(Cl)nc1)c1cn(Cc2cccc(Br)n2)c2ccccc2c1=O [Example 188] |
| < 100 | COc1ccc(C(=O)c2cn(Cc3cccc(C(F)(F)F)n3)c3ccccc3c2=O)cc1F [Example 217] |
| < 100 | COc1ccc(C(=O)c2cn(Cc3cccc(Cl)c3)c3ccccc3c2=O)cc1 [Example 243] |
| 100 to 500 | O=C(c1ccc2c(c1)OCCO2)c1cn(Cc2cccc(C(F)(F)F)c2)c2ccccc2c1=O [Example 232] |
| 100 to 500 | Cc1ccc(C(=O)c2cn(Cc3cccc(-c4ncco4)n3)c3ccccc3c2=O)cc1C [Example 41] |
| < 100 | N#Cc1cccc(Cn2cc(C(=O)c3ccc4c(c3)OCCO4)c(=O)c3ccccc32)n1 [Example 228] |
| < 100 | COc1ncc(C(=O)c2cn(Cc3cccc(Br)n3)c3ccccc3c2=O)cc1C [Example 198] |
| < 100 | Cc1ccc(C(=O)c2cn(Cc3ccc(C(F)(F)F)o3)c3ccccc3c2=O)cc1C [Example 65] |
| < 100 | Cc1cccc(Cn2cc(C(=O)c3cnc(C)c(C)c3)c(=O)c3cc(F)ccc32)n1 [Example 124] |
| < 100 | O=C(c1ccc2c(c1)OCCO2)c1cn(Cc2cccc(Br)n2)c2ccccc2c1=O [Example 113] |

| IC50 [nM] | Structure (SMILES) |
| --- | --- |
| < 100 | Cc1cnc(C(=O)c2cn(Cc3cccc(Br)n3)c3ccccc3c2=O)cc1C [Example 94] |
| 500 to 20000 | Cc1ccc(C(=O)c2cn(Cc3cccnc3)c3cc4c(cc3c2=O)OCCO4)cc1C [Example 12] |
| 500 to 20000 | COc1ccc(C(=O)c2cn(Cc3cccc(Br)n3)c3ccc(C)nc3c2=O)cc1F [Example 237] |
| 100 to 500 | CC(=O)Nc1cccc(Cn2cc(C(=O)c3ccc(C)c(C)c3)c(=O)c3ccccc32)n1 [Example 52] |
| < 100 | CC(C)c1ccc(C(=O)c2cn(Cc3cccc(Br)n3)c3ccccc3c2=O)cc1 [Example 148] |
| 500 to 20000 | Cc1cccc(Cn2cc(C(=O)c3cccnc3)c(=O)c3ccccc32)n1 [Example 35] |
| 500 to 20000 | O=C(c1cccnc1)c1cn(Cc2ccccc2F)c2ccccc2c1=O [Example 33] |
| 500 to 20000 | CNC(=O)c1ccccc1C(=O)c1cn(Cc2cccc(Br)n2)c2ccccc2c1=O [Example 169] |
| 100 to 500 | Cc1cccc(C(=O)c2cn(Cc3cccc(Br)n3)c3ccccc3c2=O)n1 [Example 122] |
| < 100 | COc1ccc(C(=O)c2cn(Cc3cccc(Br)n3)c3nc(C)ccc3c2=O)cc1C [Example 143] |
| 100 to 500 | COCc1cccc(Cn2cc(C(=O)c3ccc(C)c(C)c3)c(=O)c3ccccc32)n1 [Example 111] |
| < 100 | Cc1ccc(C(=O)c2cn(Cc3cccc(Br)n3)c3ccccc3c2=O)nc1 [Example 151] |
| 100 to 500 | COc1ccc(C(=O)c2cn(Cc3cccc(N)n3)c3ccccc3c2=O)cc1C [Example 209] |
| < 100 | Cc1nc(C(=O)c2cn(Cc3cccc(Br)n3)c3ccccc3c2=O)sc1C [Example 147] |
| 100 to 500 | Cc1ccc(C(=O)c2cn(Cc3cccc(S(C)(=O)=O)n3)c3ccccc3c2=O)cc1C [Example 78] |
| < 100 | COC(=O)c1ccccc1C(=O)c1cn(Cc2cccc(Br)n2)c2ccccc2c1=O [Example 155] |
| 100 to 500 | CNc1cccc(Cn2cc(C(=O)c3cnc(C)c(C)c3)c(=O)c3ccccc32)n1 [Example 99] |
| 500 to 20000 | COc1ccc(C(=O)c2cn(Cc3cccc(Br)n3)c3nc(C(F)(F)F)ccc3c2=O)cc1F [Example 226] |
| 500 to 20000 | COc1ccc(C(=O)c2cn(Cc3cccc(Br)c3)c3ccc(C)nc3c2=O)cc1F [Example 238] |
| < 100 | Cc1ccc(C(=O)c2cn(Cc3cccc(Br)n3)c3cc(F)c(F)cc3c2=O)cc1C [Example 73] |
| 500 to 20000 | Cc1ccc(C(=O)c2cn(Cc3cccnc3)c3ccccc3c2=O)cc1C [Example 10] |
| 100 to 500 | COc1ccc(C(=O)c2cn(Cc3cccc(C)n3)c3nc(C)c(C)cc3c2=O)cc1C [Example 192] |
| 100 to 500 | Cc1cccnc1C(=O)c1cn(Cc2cccc(Br)n2)c2ccccc2c1=O [Example 149] |
| 100 to 500 | CC(C)Oc1ccc(C(=O)c2cn(Cc3cccc(Br)n3)c3ccccc3c2=O)cc1 [Example 218] |
| 500 to 20000 | COc1ccc(C(=O)c2cn(Cc3cccc(C)n3)c3cccnc3c2=O)cc1C [Example 206] |

| IC50 [nM] | Structure (SMILES) |
| --- | --- |
| < 100 | COc1ccc(C(=O)c2cn(Cc3cccc(C)n3)c3ncccc3c2=O)cc1F [Example 163] |
| 100 to 500 | O=C(c1ccc(C2OCCCO2)cc1)c1cn(Cc2cccc(Br)n2)c2ccccc2c1=O [Example 137] |
| 500 to 20000 | Cc1ccc(C(=O)c2cn(Cc3ccccc3-c3cncnc3)c3ccccc3c2=O)cc1C [Example 95] |
| < 100 | Cc1ccc(C(=O)c2cn(Cc3cccc(Br)n3)c3ccc(F)cc3c2=O)cc1C [Example 53] |
| 100 to 500 | Cc1ncccc1C(=O)c1cn(Cc2cccc(Br)n2)c2ccccc2c1=O [Example 219] |
| 100 to 500 | Cc1ccc(C(=O)c2cn(Cc3cccc(N4CCOCC4)n3)c3ccccc3c2=O)cc1C [Example 71] |
| < 100 | Cc1ccc(C(=O)c2cn(Cc3ncccc3F)c3ccccc3c2=O)cc1C [Example 37] |
| < 100 | CN(C)c1ccc(C(=O)c2cn(Cc3cccc(Br)n3)c3ccccc3c2=O)cc1 [Example 120] |
| < 100 | O=C(c1ccccc1C(=O)N1CCC1)c1cn(Cc2cccc(Br)n2)c2ccccc2c1=O [Example 171] |
| < 100 | COc1ccc(C(=O)c2cn(Cc3cccc(C)n3)c3ncccc3c2=O)cc1C [Example 162] |
| 500 to 20000 | Cc1ncc(C(=O)c2cn(Cc3cccc(Br)n3)c3ccccc3c2=O)n1C [Example 152] |
| < 100 | Cc1cc(C(=O)c2cn(Cc3cccc(C(F)(F)F)n3)c3ccccc3c2=O)cnc1C [Example 82] |
| 500 to 20000 | Cc1ccc(C(=O)c2cn(Cc3ccccc3F)c3ccncc3c2=O)cc1C [Example 46] |
| < 100 | Cc1ccccc1C(=O)c1cn(Cc2cccc(Br)n2)c2ccccc2c1=O [Example 121] |
| < 100 | Cc1ccc(C(=O)c2cn(Cc3cnccn3)c3ccccc3c2=O)cc1C [Example 57] |
| < 100 | COc1ccc(C(=O)c2cn(Cc3cccc(C(F)(F)F)c3)c3ncccc3c2=O)cc1C [Example 196] |
| 500 to 20000 | Cc1ccc(C(=O)c2cn(Cc3ccncc3)c3cc4c(cc3c2=O)OCO4)cc1C [Example 3] |
| < 100 | Cc1cccc(Cn2cc(C(=O)c3ccc4c(c3)OCCO4)c(=O)c3cccnc32)n1 [Example 164] |
| < 100 | COc1ccc(C(=O)c2cn(Cc3cccc(Br)n3)c3ccccc3c2=O)cc1 [Example 144] |
| 500 to 20000 | Cc1cccc(Cn2cc(C(=O)c3cccnc3)c(=O)c3ccccc32)c1 [Example 34, 1-(3-Methyl-benzyl)-3-(pyridine-3-carbonyl)-1H-quinolin-4-one] |
| 100 to 500 | O=C(c1ccc(N2CCCC2)nc1)c1cn(Cc2cccc(Br)n2)c2ccccc2c1=O [Example 241] |
| < 100 | COc1cc(C(=O)c2cn(Cc3cccc(Br)n3)c3ncccc3c2=O)ccc1Cl [Example 172] |
| 100 to 500 | Cc1ccnc(C(=O)c2cn(Cc3cccc(Br)n3)c3ccccc3c2=O)c1 [Example 150] |
| < 100 | CCc1ccc(C(=O)c2cn(Cc3cccc(Br)n3)c3ccccc3c2=O)cn1 [Example 154] |
| < 100 | CCOc1ccc(C(=O)c2cn(Cc3cccc(Br)n3)c3ccccc3c2=O)cc1C [Example 132] |

| Structure (SMILES) | IC50 [nM] |
| --- | --- |
| Cc1ccc(C(=O)c2cn(Cc3cccc(Br)n3)c3ccccc3c2=O)cc1C [Example 51] | < 100 |
| Cc1ccc(C(=O)c2cn(Cc3c(C)cccc3C)c3ccccc3c2=O)cc1C [Example 58] | 500 to 20000 |
| Cc1ccc(C(=O)c2cn(CCc3ccccc3)c3ccccc3c2=O)cc1C [Example 27, 3-(3,4-Dimethyl-benzoyl)-1-phenethyl-1H-quinolin-4-one] | 500 to 20000 |
